Assay results reported in paper PMC9916441, “Resveratrol Derivative Exhibits Marked Antiproliferative Actions, Affecting Stemness in Pancreatic Cancer Cells” (International Journal of Molecular Sciences, 2023).
Like-named read-outs stand apart in the source and are kept apart here.

Experiments:
[1] = system: normal HFF-1 fibroblast cells; experiment: MTT cell viability assay on normal fibroblasts; type: cell-based, human; conditions: 72 h
Experimental: The cell viability was assessed using MTT assay, as previously described. Briefly, the cells were seeded in 96-well plates (4 × 10^3 cells/well) and were treated for 72 h with different concentrations of RSV, DF5, and DF12. The IC50 values were extrapolated from dose–response curves and calculated using the CompuSyn software (https://www.combosyn.com/). The selectivity index (SI) values were calculated as ratios between the IC50 values of compounds in normal HFF-1 fibroblast cells and the IC50 values of the same compounds in the PC cell lines.

[2] = system: AsPC-1; experiment: Flow cytometry immunophenotyping of CD133+EpCAM+ cancer stem-like subpopulation; type: cell-based, human; conditions: AsPC-1, 20 μM, 72 h
Experimental: (§1) The expression of CD133 and EpCAM surface antigens was evaluated using flow cytometry. Briefly, the PC cells were seeded in 6-well plates and treated for 72 h with 20 μM DF5, RSV, or with vehicle (DMSO). After treatment, the cells were collected in PBS and stained at room temperature in the dark for 30 min with PE-CD133, FITC-EpCAM antibodies, and Reactive Dye. After labeling, the samples were washed in PBS by centrifugation at 1500 rpm for 10 min, to remove excess antibodies. Flow cytometer performance, stability, and data reproducibility were daily checked by using the CS&T quality control Module (BD Biosciences). The gating strategy and the evaluation of non-specific fluorescence was determined using fluorescence minus one (FMO) controls. The data were acquired with FACSVerse analyzer equipped with a volumetric count module (BD Biosciences, San Jose, CA, USA) and are expressed as the percentage of positive cells.

[3] = system: BxPC-3; experiment: as above; type: cell-based, human; conditions: BxPC-3, 20 μM, 72 h
Experimental: as §1

[4] = system: Capan-2; experiment: as above; type: cell-based, human; conditions: Capan-2, 20 μM, 72 h
Experimental: as §1

[5] = system: AsPC-1; experiment: Apoptosis assay, annexin-V staining by flow cytometry; type: cell-based, human; conditions: 24 h
Experimental: (§2) The apoptosis assay was performed essentially as previously described. the analyses were performed using a CytoFLEX flow cytometer, using the FL1 detector in linear mode and the CytoExpert software (Beckmann Coulter, Milano, Italy).

[6] = system: BxPC-3; experiment: as above; type: cell-based, human; conditions: 24 h
Experimental: as §2

[7] = system: Capan-2; experiment: as above; type: cell-based, human; conditions: 24 h
Experimental: as §2

[8] = system: poly-(ADP-ribose) polymerase (PARP); experiment: Western blot of PARP cleavage in PC cell lines; type: cell-based, human; conditions: vs untreated cells
Experimental: (§3) The PC cell lines treated with 50 μM DF5, RSV, or with vehicle (DMSO) were lysed in a cell lysis buffer containing PMSF, protease inhibitors cocktails, and phosphatase inhibitors. The protein lysate quantification and immunoblot analyses were performed as previously described.

[9] = system: AsPC-1, BxPC-3 and Capan-2 PC cell lines; experiment: Cell cycle analysis by flow cytometry; type: cell-based, human; conditions: 50 μM, 24 h
Experimental: To perform the cell cycle analysis, the PC cells (3 × 10^5) were collected, fixed in 70% cold ethanol, and kept at 4 °C overnight. The collected cells were incubated at 4 °C overnight in 5 μg/mL PI (final concentration) and 100 μg/mL RNAse (final concentration). The cell cycle profiles were analyzed as previously described.

[10] = system: cyclin B1/CDK1 complex; experiment: Western blot of cyclin B1, Cdc2/Cdk1 and p-Cdc2 (Thr161) in PC cell lines; type: cell-based, human; conditions: 50 μM
Experimental: as §3

[11] = Enzymatic stability in simulated gastric fluid (SGF) with pepsin; type: in vitro ADME; conditions: SGF pH 1.2 with pepsin, 37 °C
Experimental: (§4) The SGF and SIF, containing pepsin and pancreatin, respectively, were prepared following the USP specifications. The reactions were carried out in a shaking water bath at 37 °C. The drug stock solution (10 μL of a 10^−4 M) was added to the preheated gastrointestinal fluids and, at fixed time points (0, 15, 30, and 60 min for SGF and 0, 60, 120, and 180 min for SIF), 20 μL of the media were mixed with 200 μL of cold acetonitrile containing 0.5% v/v of formic acid. The samples were centrifuged for 10 min at 5000× g and the supernatants were analyzed using HPLC. The relative difference (RD%) was used to predict the amount of compound decomposed in the presence of gastrointestinal fluids.

[12] = Enzymatic stability in simulated intestinal fluid (SIF) with pancreatin; type: in vitro ADME; conditions: SIF pH 6.8 with pancreatin, 37 °C
Experimental: as §4

[13] = Human plasma stability assay; type: in vitro ADME; conditions: 80% human plasma, 37 °C
Experimental: The in vitro enzymatic stabilities of DF5 were assessed in human plasma and simulated gastric and intestinal fluids (SGF and SIF, respectively). For the human plasma stability assay, 10 μL of a 10^-4 M stock solution of DF5 in acetonitrile was added to a pre-heated (37 °C) plasma fraction and diluted with phosphate buffer (pH 7.4, 0.02 M) to obtain a final volume of 1 mL (80% plasma). The samples (50 µL) were extracted at various times and 200 µL of cold acetonitrile containing 0.5% v/v of formic acid were employed to stop the enzymatic reaction. After centrifugation for 10 min at 5000 g, the supernatant was removed and analyzed using HPLC [57].

[14] = PAMPA-GI permeability; type: in vitro ADME; conditions: for Papp at 16 h, 500 µM: PAMPA, 16 h incubation, read-out: Permeability, Pe
Experimental: A PAMPA was used to evaluate the passive intestinal absorption of DF5. The system consisted in a 96-well, MultiScreen-IP PAMPA filter plate (donor plate) equipped with a PVDF membrane filter and a 96-well PTFE acceptor plate. The PVDF membrane was coated with 5 µL of a 2% w/v lecithin in n-dodecane solution. […] Donor and acceptor solutions, both containing 5% of DMSO v/v%, were employed to avoid precipitation of the drug. The system was assembled placing the drug-filled donor plate into the acceptor plate and incubated at room temperature for 16 h. Each solution was analyzed using HPLC and the permeability (Pe, nm/s) was determined as previously reported.

Cc1ccc(/C=C/c2ccc(O)cc2)cc1 [DF5]
toxicity against normal HFF-1 fibroblast cells ([1]; up to 100 μM): negligible toxicity
IC50 ([1]; Homo sapiens, normal HFF-1 fibroblasts, 100 μM highest concentration used): > 100 µM
effect on percentage of CD133+EpCAM+ cancer stem-like subpopulation [2]: sharp and statistically significant reduction
effect on percentage of CD133+EpCAM+ cancer stem-like subpopulation [3]: statistically significant impact
effect on percentage of CD133+EpCAM+ cancer stem-like subpopulation [4]: sharp and statistically significant reduction
apoptosis induction (Annexin V+ cells) ([5]; AsPC-1, 20 μM): statistically significant apoptosis
apoptosis induction (Annexin V+ cells) ([5]; AsPC-1, 50 μM): significant induction of apoptosis
apoptosis induction (Annexin V+ cells) ([6]; BxPC-3, 20 μM): neither compound affected apoptosis
apoptosis induction (Annexin V+ cells) ([6]; BxPC-3, 50 μM): significant induction of apoptosis
apoptosis induction (Annexin V+ cells) ([7]; Capan-2, 20 μM): statistically significant apoptosis
apoptosis induction (Annexin V+ cells) ([7]; Capan-2, 50 μM): significant induction of apoptosis
effect on cleaved:uncleaved PARP ratio ([8]; AsPC-1, 50 μM): strong increase in cleaved:uncleaved PARP ratios
effect on cleaved:uncleaved PARP ratio ([8]; BxPC-3, 50 μM): minimal effects on the PARP cleavage ratio
effect on cleaved:uncleaved PARP ratio ([8]; Capan-2, 50 μM): strong increase in cleaved:uncleaved PARP ratios
effect on cells in G0/G1 phase ([9]; across the three PC cell lines, vs untreated cells): statistically significant accumulation of cells at the G0/G1 phase
effect on cells in G2/M phase ([9]; three PC cell lines, in Capan-2 it did not reach statistical significance): drastic depletion of cells in the G2/M phase
effect on expression of the cyclin B1/CDK1 complex ([10]; AsPC-1 and Capan-2, also Cdc2/CDK1 dephosphorylation at Thr-161): reduction in the expression of the cyclin B1/CDK1 complex
effect on expression of the cyclin B1/CDK1 complex ([10]; BxPC-3): much less evident
RD% (relative difference) ([11]; 15 min): 4.36%
RD% (relative difference) ([11]; 30 min): 7.10%
RD% (relative difference) ([11]; 60 min): 8.87%
RD% (relative difference) ([12]; 60 min): 8.12%
RD% (relative difference) ([12]; 120 min): 9.20%
RD% (relative difference) ([12]; 180 min): 9.36%
stability in human plasma [13]: stable (stable: RD% < 5%)
Papp at 16 h, 500 µM ([14]; pH 5 (donor and acceptor)): 6.02 ×10⁻⁶ cm/s
Papp at 16 h, 500 µM ([14]; pH 6.5 (donor and acceptor)): 9 ×10⁻⁶ cm/s
Papp at 16 h, 500 µM ([14]; pH 7.4 (donor and acceptor)): 2.59 ×10⁻⁶ cm/s
Classification (GI permeation) ([14]; pH 5): Pe+ (Pe+ (indicative of high GI permeation): Pe (nm s^−1) > 10)
Classification (GI permeation) ([14]; pH 6.5): Pe+ (Pe+ (indicative of high GI permeation): Pe (nm s^−1) > 10)
Classification (GI permeation) ([14]; pH 7.4): Pe+ (Pe+ (indicative of high GI permeation): Pe (nm s^−1) > 10)
